Key:
Format in all cases: biochemical
[1] = biological target: T1, calpain-I isolated from human erythrocytes (Homo sapiens, UniProt P07384); experiment: Calpain I kinetic fluorescence enzyme inhibition assay; conditions: apparent Ki from IC50 by Cheng-Prussoff; average of 2 to 4 dose-effect plots
T1 construct: calpain-I—isolated from human erythrocytes; purchased Calbiochem 208713; host or cells: human erythrocytes (tissue isolate)
T1 sequence (P07384 1-714): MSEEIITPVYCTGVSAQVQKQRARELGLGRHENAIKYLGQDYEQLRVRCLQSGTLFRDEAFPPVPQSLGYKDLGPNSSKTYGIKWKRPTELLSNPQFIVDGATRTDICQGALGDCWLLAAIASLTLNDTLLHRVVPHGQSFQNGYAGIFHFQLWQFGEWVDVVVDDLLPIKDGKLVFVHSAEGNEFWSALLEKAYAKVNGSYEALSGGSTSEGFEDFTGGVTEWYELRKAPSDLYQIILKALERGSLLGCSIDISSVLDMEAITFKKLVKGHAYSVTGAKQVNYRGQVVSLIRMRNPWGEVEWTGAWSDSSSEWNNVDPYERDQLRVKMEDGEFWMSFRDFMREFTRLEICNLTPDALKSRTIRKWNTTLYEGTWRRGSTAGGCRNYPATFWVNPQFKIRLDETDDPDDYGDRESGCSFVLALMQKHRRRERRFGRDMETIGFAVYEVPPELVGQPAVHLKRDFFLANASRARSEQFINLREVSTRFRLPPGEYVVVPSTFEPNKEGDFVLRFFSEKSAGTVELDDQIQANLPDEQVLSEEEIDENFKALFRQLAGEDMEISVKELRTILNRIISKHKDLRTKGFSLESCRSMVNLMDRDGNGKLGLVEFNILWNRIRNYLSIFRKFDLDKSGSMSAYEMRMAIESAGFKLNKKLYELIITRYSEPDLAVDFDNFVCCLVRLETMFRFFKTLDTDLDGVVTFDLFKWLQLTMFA
T1 sequence (P04632 1-268 partner): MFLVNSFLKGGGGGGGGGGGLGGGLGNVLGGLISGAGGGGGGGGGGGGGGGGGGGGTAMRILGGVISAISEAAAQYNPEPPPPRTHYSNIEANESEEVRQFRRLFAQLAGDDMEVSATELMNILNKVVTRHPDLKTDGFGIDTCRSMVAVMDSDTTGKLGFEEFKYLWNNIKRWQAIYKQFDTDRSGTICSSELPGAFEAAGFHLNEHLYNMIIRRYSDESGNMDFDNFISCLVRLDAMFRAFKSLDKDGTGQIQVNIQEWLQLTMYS
Experimental: (§1) The following solutions and buffers were employed: • HBS (for 40 ml): 800 μl M HEPES; 2.16 ml 100 mM KCl; 4.8 ml 1M NaCl; 3.59 ml 5% glucose; 60 μl μM MgSO4; 400 μl 100 mM Na pyruvate, 28.19 ml water; pH 7.2-7.5. • lysis buffer (for 20 ml): 400 μl M Tris pH 8.2; 2.74 ml 1M NaCl; 520 μl 0.5M EDTA; 2 ml 10% triton X-100; 0.8 ml (=1:25) CompletePlus (1 tablet/2 ml H2O); 200 μl 100 mM Pefabloc; 13.34 ml water, pH 8.2. • TBST (10×) (for 1 l): 100 mM Tris (12.1 g); 1.5M NaCl (87 g); 1% Tween 20 (10 g), adjusted to pH 8. I Enzyme Inhibition In Vitro: • Testing for blockade of the corresponding enzymic activities was carried out by means of kinetic fluorescence assays (excitation 390 nm, emission 460 nm). • Apparent Ki values were calculated from the experimentally determined IC50 values by the Cheng-Prussoff relation assuming a reversible competitive enzyme inhibition. The Km values of the substrates used under the assay conditions indicated above were: 90 μM (Z-Phe-Arg-AMC, cathepsin B), 10 μM (Z-Gly-Pro-Arg-AMC, cathepsin K), 2 μM (Z-Phe-Arg-AMC, cathepsin L), and 30 μM (Z-Val-Val-Arg-AMC, cathepsin S). • The indicated Ki values are averages of the inhibition constants calculated on the basis of 2 to 4 independent dose-effect plots.
(§2) The following assays were used: • 1. Calpain I: • 20 nM calpain-I—isolated from human erythrocytes (Calbiochem #208713), 100 μM Suc-Leu-Tyr-AMC (Bachem #1-1355) as substrate in buffer with 62 mM imidazole, 0.3 mM CaCl2, 0.10% CHAPS, 0.05% BSA, 1 mM DTT at pH 7.3 and room temperature. • 2. Cathepsin B: • 0.25 nM cathepsin B—isolated from human liver (Calbiochem #219362), 100 μM Z-Phe-Arg-AMC (Bachem #I-1160) as substrate 50 mM MES, 2 mM EDTA, 0.05% Brij 35, 2.5 mM L-cysteine, pH 6.0, room temperature. • 3. Cathepsin K: • 3 nM cathepsin K—activated from recombinant human procathepsin K from E. coli (Calbiochem #342001), 10 μM Z-Gly-Pro-Arg-AMC (Biomol #P-142) as substrate in 50 mM MES, 2 mM EDTA, 0.05% Brij 35, 2.5 mM L-cysteine, pH 6.0, room temperature. • 4. Cathepsin L: • 1 nM cathepsin L—isolated from human liver (Calbiochem #219402), 2 μM Z-Phe-Arg-AMC (Bachem #1-1160) as substrate in 50 mM MES, 2 mM EDTA, 0.05% Brij 35, 2.5 mM L-cysteine, pH 6.0, room temperature. • 5. Cathepsin S: • 0.5 nM recombinant human cathepsin S from E. coli (Calbiochem #219343), 20 μM Z-Val-Val-Arg-AMC (Bachem #1-1540) as substrate in 50 mM MES, 2 mM EDTA, 0.05% Brij 35, 2.5 mM L-cysteine, pH 6.0, room temperature. • The results of the in vitro determination are indicated in Table 1. The following abbreviations are used in Table 1: • The “Calpain activity” column, ++ stands for a calpain Ki (Ki(calpain)) of ≦40 nM and + means: 40 nM<Ki(Calpain)≦100 nM. • The “Sel. cat. B” column indicates the Ki(cathepsin B)/Ki(calpain) ratio. In this connection, ++ means a Ki(cathepsin B)/Ki(calpain) ratio of ≧30 and + means 10≦Ki(cathepsin B)/Ki(calpain)<30. • The “Sel. cat. K” column indicates the Ki(cathepsin K)/Ki(calpain) ratio. In this connection, ++ means a Ki(cathepsin K)/Ki(calpain) ratio of ≧30 and + means 10≦Ki(cathepsin K)/Ki(calpain)<30. • The “Sel. cat. L” column indicates the Ki(cathepsin L)/Ki(calpain) ratio. In this connection, ++ means a Ki(cathepsin L)/Ki(calpain) ratio of ≧50 and + means 30≦Ki(cathepsin L)/Ki(calpain)<50. • The “Sel. cat. S” column indicates the Ki(cathepsin S)/Ki(calpain) ratio. In this connection, ++ means a Ki(cathepsin S)/Ki(calpain) ratio of ≧100 and + means 50≦Ki(cathepsin S)/Ki(calpain)<100.

[2] = biological target: T2, cathepsin L isolated from human liver (Homo sapiens, UniProt P07711); experiment: Cathepsin L kinetic fluorescence enzyme inhibition assay; conditions: selectivity ratio versus calpain I
T2 construct: cathepsin L—isolated from human liver; purchased Calbiochem 219402; host or cells: human liver (tissue isolate)
Experimental: as §1, §2

[3] = biological target: T3, recombinant human cathepsin S (Homo sapiens, UniProt P25774); experiment: Cathepsin S kinetic fluorescence enzyme inhibition assay; conditions: selectivity ratio versus calpain I
T3 construct: purchased Calbiochem 219343; host or cells: E. coli
Experimental: as §1, §2

T3 sequence (P25774 115-331): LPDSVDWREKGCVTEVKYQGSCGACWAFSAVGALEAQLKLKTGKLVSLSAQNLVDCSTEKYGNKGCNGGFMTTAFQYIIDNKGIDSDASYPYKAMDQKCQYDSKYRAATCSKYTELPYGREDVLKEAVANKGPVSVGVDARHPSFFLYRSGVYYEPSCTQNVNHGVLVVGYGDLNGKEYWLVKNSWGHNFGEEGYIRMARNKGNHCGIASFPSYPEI
T2 sequence (P07711 114-333): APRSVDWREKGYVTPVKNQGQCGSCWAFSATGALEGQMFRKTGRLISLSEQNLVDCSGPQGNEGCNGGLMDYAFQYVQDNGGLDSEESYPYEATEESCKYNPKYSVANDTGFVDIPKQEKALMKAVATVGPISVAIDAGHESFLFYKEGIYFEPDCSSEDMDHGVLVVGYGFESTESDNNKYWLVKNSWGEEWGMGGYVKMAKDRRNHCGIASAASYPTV

| Compound | Ki [1] [nM] | Sel cat. L (Ki(cathepsin L)/Ki(calpain) ratio) [2] | Sel cat. S (Ki(cathepsin S)/Ki(calpain) ratio) [3] |
| --- | --- | --- | --- |
| CCCCC(NC(=O)c1cccnc1-n1cnc(-c2ccccc2)c1)C(=O)C(N)=O (centres unmarked) [Example 2, N-{1-[Amino(oxo)acetyl]pentyl}-2-(4-phenyl-1H-imidazol-1-yl)nicotinamide] | ≤ 40 | ++ (Ki(cathepsin L)/Ki(calpain) ratio of ≧50) | – |
| CCN(CC)c1ccc(-c2ccn(-c3ncccc3C(=O)NC(Cc3ccccc3)C(=O)C(N)=O)n2)cc1 (centres unmarked) [Example 42, N-(3-Amino-1-benzyl-2,3-dioxopropyl)-2-{3-[4-(diethylamino)phenyl]-1H-pyrazol-1-yl}nicotinamide] | ≤ 40 | – | ++ (Ki(cathepsin S)/Ki(calpain) ratio of ≧100) |
| CCN(CC)Cc1ccc(-c2ccn(-c3ncccc3C(=O)NC(Cc3ccccc3)C(=O)C(N)=O)n2)cc1.Cl (centres unmarked) [Example 43, N-(3-Amino-1-benzyl-2,3-dioxopropyl)-2-(3-{4-[(diethylamino)methyl]phenyl}-1H-pyrazol-1-yl)nicotinamide hydrochloride] | 40 to 100 | – | ++ (Ki(cathepsin S)/Ki(calpain) ratio of ≧100) |
| CCCCC(NC(=O)c1cccnc1-n1ccc(-c2ccc(CN(CC)CC)cc2)n1)C(=O)C(N)=O (centres unmarked) [Example 44, N-{1-[Amino(oxo)acetyl]pentyl}-2-(3-{4-[(diethylamino)methyl]phenyl}-1H-pyrazol-1-yl)nicotinamide] | ≤ 40 | – | + (50≦Ki(cathepsin S)/Ki(calpain)<100) |
| CCCCC(NC(=O)c1cccnc1-n1ccc(-c2ccc(CN3CCOCC3)cc2)n1)C(=O)C(N)=O (centres unmarked) [Example 45, N-{1-[Amino(oxo)acetyl]pentyl}-2-{3-[4-(morpholin-4-ylmethyl)phenyl]-1H-pyrazol-1-yl}nicotinamide] | ≤ 40 | – | + (50≦Ki(cathepsin S)/Ki(calpain)<100) |
| NC(=O)C(=O)C(Cc1ccccc1)NC(=O)c1cccnc1-n1ccc(-c2ccc(CN3CCOCC3)cc2)n1 (centres unmarked) [Example 46, N-(3-Amino-1-benzyl-2,3-dioxopropyl)-2-{3-[4-(morpholin-4-ylmethyl)phenyl]-1H-pyrazol-1-yl}nicotinamide] | 40 to 100 | – | ++ (Ki(cathepsin S)/Ki(calpain) ratio of ≧100) |
| CCCCC(NC(=O)c1cccnc1-n1ccc(-c2ccc(N(CC)CC)cc2)n1)C(=O)C(N)=O (centres unmarked) [Example 47, N-{1-[Amino(oxo)acetyl]pentyl}-2-{3-[4-(diethylamino)phenyl]-1H-pyrazol-1-yl}nicotinamide] | ≤ 40 | – | ++ (Ki(cathepsin S)/Ki(calpain) ratio of ≧100) |
| Cl.NC(=O)C(=O)C(Cc1ccccc1)NC(=O)c1cccnc1-n1ccc(-c2cccc(CN3CCOCC3)c2)n1 (centres unmarked) [Example 52, N-(3-Amino-1-benzyl-2,3-dioxopropyl)-2-{3-[3-(morpholin-4-ylmethyl)phenyl]-1H-pyrazol-1-yl}nicotinamide hydrochloride] | 40 to 100 | – | ++ (Ki(cathepsin S)/Ki(calpain) ratio of ≧100) |
| NC(=O)C(=O)C(Cc1ccccc1)NC(=O)c1cccnc1-n1ccc(-c2ccc(-n3ccnc3)cc2)n1 (centres unmarked) [Example 101, N-[3-Amino-2,3-dioxo-1-(phenylmethyl)propyl]-2-{3-[4-(1H-imidazol-1-yl)phenyl]-1H-pyrazol-1-yl}pyridine-3-carboxamide] | ≤ 40 | – | ++ (Ki(cathepsin S)/Ki(calpain) ratio of ≧100) |
| NC(=O)C(=O)C(Cc1ccccc1)NC(=O)c1cccnc1-n1cc(-c2ccccc2F)cn1 (centres unmarked) [Example 104, N-[3-Amino-2,3-dioxo-1-(phenylmethyl)propyl]-2-[4-(2-fluorophenyl)-1H-pyrazol-1-yl]pyridine-3-carboxamide] | ≤ 40 | – | + (50≦Ki(cathepsin S)/Ki(calpain)<100) |
| NC(=O)C(=O)C(Cc1ccccc1)NC(=O)c1cccnc1-n1cc(CCN2CCOCC2)c(-c2ccc(F)cc2)n1 (centres unmarked) [Example 165, N-[3-Amino-2,3-dioxo-1-(phenylmethyl)propyl]-2-[3-(4-fluorophenyl)-4-(2-morpholin-4-ylethyl)-1H-pyrazol-1-yl]pyridine-3-carboxamide] | 40 to 100 | – | ++ (Ki(cathepsin S)/Ki(calpain) ratio of ≧100) |
| NC(=O)C(=O)C(Cc1ccccc1)NC(=O)c1cccnc1-n1cc(CN2CCOCC2)c(-c2cccc(C(F)(F)F)c2)n1 (centres unmarked) [Example 177, N-[3-Amino-2,3-dioxo-1-(phenylmethyl)propyl]-2-{4-(morpholin-4-ylmethyl)-3-[3-(trifluoromethyl)phenyl]-1H-pyrazol-1-yl}pyridine-3-carboxamide] | 40 to 100 | – | ++ (Ki(cathepsin S)/Ki(calpain) ratio of ≧100) |
| NC(=O)C(=O)C(Cc1ccccc1)NC(=O)c1cccnc1-n1cc(CN2CCCC2)c(-c2cccc(C(F)(F)F)c2)n1 (centres unmarked) [Example 178, N-[3-Amino-2,3-dioxo-1-(phenylmethyl)propyl]-2-{4-(pyrrolidin-1-ylmethyl)-3-[3-(trifluoromethyl)phenyl]-1H-pyrazol-1-yl}pyridine-3-carboxamide] | 40 to 100 | – | ++ (Ki(cathepsin S)/Ki(calpain) ratio of ≧100) |

Source: patent US7728012B2, “Carboxamide compounds and their use as calpain inhibitors” (Abbott GmbH & Co. KG, priority 2006, dated 2010)
